Measurements published in ChEMBL document CHEMBL1201862, “PubChem BioAssay data set” (2004).
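Each compound was tested at five concentrations against cells in 96-well plates for 48 hours. Abbreviation: GI50, concentration required for 50% inhibition of growth.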 The source made the active and inactive calls. Rule as the data show it: active = GI50 up to about 1.1 µM and inactive = higher.

How the values were obtained:
Assay in all cases: NCI-60 cell line screen, 48 h
DMS-114 = tested on: DMS-114
TK-10 = tested on: TK-10
786-0 = tested on: 786-0
OVCAR-8 = tested on: OVCAR-8
DMS-273 = tested on: DMS-273
SNB-75 = tested on: SNB-75
U-251 = tested on: U-251
SF-295 = tested on: SF-295
SF-539 = tested on: SF-539
SK-OV-3 = tested on: SK-OV-3
HOP-92 = tested on: HOP-92
COLO 205 = tested on: COLO 205
SK-MEL-2 = tested on: SK-MEL-2
CAKI-1 = tested on: CAKI-1
SK-MEL-5 = tested on: SK-MEL-5
NCI-H23 = tested on: NCI-H23
CCRF-CEM = tested on: CCRF-CEM
HOP-18 = tested on: HOP-18
MOLT-4 = tested on: MOLT-4
OVCAR-5 = tested on: OVCAR-5
HCT-15 = tested on: HCT-15
SNB-19 = tested on: SNB-19
LOX IMVI = tested on: LOX IMVI
IGROV-1 = tested on: IGROV-1
HOP-62 = tested on: HOP-62
HCC 2998 = tested on: HCC 2998
SW-620 = tested on: SW-620
UO-31 = tested on: UO-31
UACC-62 = tested on: UACC-62
UACC-257 = tested on: UACC-257
EKVX = tested on: EKVX
K562 = tested on: K562
M14 = tested on: M14
NCI-H460 = tested on: NCI-H460
RXF 393 = tested on: RXF 393
SK-MEL-28 = tested on: SK-MEL-28
SNB-78 = tested on: SNB-78
ACHN = tested on: ACHN
A498 = tested on: A498
KM12 = tested on: KM12
SF-268 = tested on: SF-268
HL-60 = tested on: HL-60
M19-MEL = tested on: M19-MEL
HCT-116 = tested on: HCT-116
DLD-1 = tested on: DLD-1
SN12C = tested on: SN12C
A549 = tested on: A549
HT-29 = tested on: HT-29
OVCAR-3 = tested on: OVCAR-3
OVCAR-4 = tested on: OVCAR-4
KM-20L2 = tested on: KM-20L2
NCI-H522 = tested on: NCI-H522
LXFL 529 = tested on: LXFL 529
NCI-H226 = tested on: NCI-H226
SR = tested on: SR
RPMI-8226 = tested on: RPMI-8226
Malme-3M = tested on: Malme-3M

For CN(C)CCNC(=O)c1cccc2ccc(-c3ccncc3)nc12, the GI50 (DMS-114) was 2.96 µM (inactive), the GI50 (TK-10) was 2.21 µM (inactive) and the GI50 (786-0) was 2.72 µM (inactive). For the same compound, the GI50 (OVCAR-8) was 2.26 µM (inactive), the GI50 (DMS-273) was 1.1 µM (active) and the GI50 (SNB-75) was 3.2 µM (inactive). The GI50 (U-251) was 1.63 µM (inactive), the GI50 (SF-295) was 2.88 µM (inactive) and the GI50 (SF-539) was 1.45 µM (inactive). For the same compound, the GI50 (SK-OV-3) was 2.22 µM (inactive), the GI50 (HOP-92) was 2.16 µM (inactive) and the GI50 (COLO 205) was 1.3 µM (inactive). The GI50 (SK-MEL-2) was 4.02 µM (inactive), the GI50 (CAKI-1) was 1.52 µM (inactive) and the GI50 (SK-MEL-5) was 1.55 µM (inactive). The GI50 (NCI-H23) was 1.8 µM (inactive), the GI50 (CCRF-CEM) was 1.87 µM (inactive) and the GI50 (HOP-18) was 3.47 µM (inactive). For the same compound, the GI50 (MOLT-4) was 0.306 µM (active), the GI50 (OVCAR-5) was 1.93 µM (inactive) and the GI50 (HCT-15) was 1.44 µM. For the same compound, the GI50 (SNB-19) was 2.81 µM (inactive), the GI50 (LOX IMVI) was 1.39 µM (inactive) and the GI50 (IGROV-1) was 1.47 µM (inactive). The GI50 (HOP-62) was 1.66 µM (inactive), the GI50 (HCC 2998) was 1.96 µM (inactive) and the GI50 (SW-620) was 1.33 µM (inactive). The GI50 (UO-31) was 1.94 µM (inactive), the GI50 (UACC-62) was 1.8 µM (inactive) and the GI50 (UACC-257) was 2.06 µM (inactive). For the same compound, the GI50 (EKVX) was 2.47 µM (inactive), the GI50 (K562) was 2.58 µM (inactive) and the GI50 (M14) was 4.11 µM (inactive). The GI50 (NCI-H460) was 0.403 µM (active), the GI50 (RXF 393) was 2.36 µM (inactive) and the GI50 (SK-MEL-28) was 4.86 µM (inactive). The GI50 (SNB-78) was 7.24 µM (inactive), the GI50 (ACHN) was 1.17 µM (inactive) and the GI50 (A498) was 1.3 µM (inactive). The GI50 (KM12) was 3.67 µM (inactive), the GI50 (SF-268) was 3.79 µM (inactive) and the GI50 (HL-60) was 0.877 µM (active). The GI50 (M19-MEL) was 1.89 µM (inactive), the GI50 (HCT-116) was 1.27 µM (inactive) and the GI50 (DLD-1) was 2.48 µM (inactive). For the same compound, the GI50 (SN12C) was 1.61 µM (inactive), the GI50 (A549) was 0.817 µM (active) and the GI50 (HT-29) was 2.54 µM (inactive). The GI50 (OVCAR-3) was 2.78 µM (inactive) and the GI50 (OVCAR-4) was 2.79 µM (inactive).
In the case of N#CC(c1ccc(Cl)cc1)c1c(=O)[nH]c2ccc(N)cc2[n+]1[O-] (stereo unspecified), the GI50 (TK-10) is reported as > 100 µM (inactive), the GI50 (786-0) is reported as > 100 µM (inactive) and the GI50 (DMS-273) is reported as > 100 µM (inactive). For the same compound, the GI50 (SNB-75) was > 100 µM (inactive), the GI50 (SF-295) was > 100 µM (inactive) and the GI50 (SF-539) was > 100 µM (inactive). The GI50 (SK-OV-3) was > 100 µM (inactive), the GI50 (HOP-92) was > 100 µM (inactive) and the GI50 (CAKI-1) was > 100 µM (inactive). The GI50 (SK-MEL-5) was > 100 µM (inactive), the GI50 (CCRF-CEM) was > 100 µM (inactive) and the GI50 (MOLT-4) was > 100 µM (inactive). For the same compound, the GI50 (LOX IMVI) was > 100 µM (inactive), the GI50 (IGROV-1) was > 100 µM (inactive) and the GI50 (KM-20L2) was > 100 µM (inactive). For the same compound, the GI50 (NCI-H522) was > 100 µM (inactive), the GI50 (SW-620) was > 100 µM (inactive) and the GI50 (LXFL 529) was > 100 µM (inactive). The GI50 (UACC-62) was > 100 µM (inactive), the GI50 (UACC-257) was > 100 µM (inactive) and the GI50 (EKVX) was > 100 µM (inactive). For the same compound, the GI50 (NCI-H226) was > 100 µM (inactive), the GI50 (K562) was > 100 µM (inactive) and the GI50 (SR) was > 100 µM (inactive). The GI50 (M14) was > 100 µM (inactive), the GI50 (SK-MEL-28) was > 100 µM (inactive) and the GI50 (RPMI-8226) was > 100 µM (inactive). For the same compound, the GI50 (ACHN) was > 100 µM (inactive), the GI50 (KM12) was > 100 µM (inactive) and the GI50 (SF-268) was > 100 µM (inactive). The GI50 (HL-60) was > 100 µM (inactive), the GI50 (M19-MEL) was > 100 µM (inactive) and the GI50 (HCT-116) was > 100 µM (inactive). For the same compound, the GI50 (DLD-1) was > 100 µM (inactive), the GI50 (A549) was > 100 µM (inactive) and the GI50 (HT-29) was > 100 µM (inactive). For the same compound, the GI50 (OVCAR-3) was > 100 µM (inactive).
With Nc1ccc(C(=O)NN2C(=O)C(Cl)C2c2ccc([N+](=O)[O-])cc2)cc1 (stereo unspecified) the GI50 (DMS-114) was 2.84 µM (inactive), the GI50 (TK-10) was 19.2 µM (inactive) and the GI50 (786-0) was 3.87 µM (inactive). The GI50 (OVCAR-8) was 14.6 µM (inactive), the GI50 (DMS-273) was 5.62 µM (inactive) and the GI50 (SNB-75) was 10.2 µM (inactive). For the same compound, the GI50 (U-251) was 2.13 µM (inactive), the GI50 (SF-295) was 13.8 µM (inactive) and the GI50 (SF-539) was 11.6 µM (inactive). The GI50 (SK-OV-3) was 14.1 µM (inactive), the GI50 (HOP-92) was 17.5 µM (inactive) and the GI50 (COLO 205) was 14.8 µM (inactive). For the same compound, the GI50 (SK-MEL-2) was 16.9 µM (inactive), the GI50 (CAKI-1) was 20 µM (inactive) and the GI50 (SK-MEL-5) was 15.5 µM (inactive). The GI50 (NCI-H23) was 7 µM (inactive), the GI50 (CCRF-CEM) was 3.54 µM (inactive) and the GI50 (MOLT-4) was 3.2 µM (inactive). The GI50 (OVCAR-5) was 17.6 µM (inactive), the GI50 (HCT-15) was 8.05 µM and the GI50 (SNB-19) was 13.1 µM (inactive). For the same compound, the GI50 (LOX IMVI) was 1.74 µM (inactive), the GI50 (IGROV-1) was 5.31 µM (inactive) and the GI50 (HOP-62) was 11 µM (inactive). The GI50 (HCC 2998) was 9.08 µM (inactive), the GI50 (KM-20L2) was 13.4 µM (inactive) and the GI50 (NCI-H522) was 1.73 µM (inactive). The GI50 (SW-620) was 11.1 µM (inactive), the GI50 (UO-31) was 15.6 µM (inactive) and the GI50 (LXFL 529) was 4.86 µM (inactive). For the same compound, the GI50 (Malme-3M) was 12.1 µM (inactive), the GI50 (UACC-62) was 8.59 µM (inactive) and the GI50 (UACC-257) was 14.7 µM (inactive). The GI50 (EKVX) was 7.59 µM (inactive), the GI50 (NCI-H226) was 17.2 µM (inactive) and the GI50 (K562) was 9.75 µM (inactive). For the same compound, the GI50 (M14) was 12.9 µM (inactive), the GI50 (NCI-H460) was 6.21 µM (inactive) and the GI50 (SK-MEL-28) was 7.23 µM (inactive). For the same compound, the GI50 (SNB-78) was 22.6 µM (inactive), the GI50 (RPMI-8226) was 15.4 µM (inactive) and the GI50 (ACHN) was 12.3 µM (inactive). The GI50 (A498) was 20.8 µM (inactive), the GI50 (KM12) was 10.5 µM (inactive) and the GI50 (SF-268) was 1.99 µM (inactive). The GI50 (HL-60) was 1.92 µM (inactive), the GI50 (M19-MEL) was 14.6 µM (inactive) and the GI50 (HCT-116) was 1.63 µM (inactive). The GI50 (DLD-1) was 9.79 µM (inactive), the GI50 (SN12C) was 14.8 µM (inactive) and the GI50 (A549) was 11.9 µM (inactive). The GI50 (HT-29) was 8.87 µM (inactive), the GI50 (OVCAR-3) was 3.71 µM (inactive) and the GI50 (OVCAR-4) was 12.7 µM (inactive).
